# Entries after “also recorded” stand apart in the source; their conditions may differ. Where no end group is shown, it is not given here. [ ]: non-standard residue; d: D form. Lys(Me3) = C[N+](C)(C)CCCC[C@H](N)C(=O)O
# Test system: KDM4A-E
# Assay: Demethylase activity of KDM4 subfamily on peptide substrates (MALDI-TOF MS), result worded for KDM4A-E together
# Format: biochemical, human
# Conditions: wild-type KDM4A-E, 10 µM enzyme, 10 µM peptide, 1 mM 2OG, 50 mM Tris pH 8, 37°C, three hours
row,Substance,demethylation by KDM4A-E
1,"AEVTRTAR[Lys(Me3)]QSAQKRVL [compound 16, Nup107-K25me3 peptide]",demethylated by multiple KDM4s; also recorded: robust demethylation
2,"ALMLENLQ[Lys(Me3)]HSTPHAAF [compound 9, ACINUS-K113me3 peptide]",failed to undergo demethylation by KDM4A-E
3,"FNRMPIAR[Lys(Me3)]IIKDGEQH [compound 8, AIFM1-K590me3 peptide]",failed to undergo demethylation; also recorded: not recognized as KDM4 substrates
4,"GGATSSAR[Lys(Me3)]NRWDEPTK [compound 12, SF3B1-K290me3 peptide]",failed to undergo demethylation; also recorded: not recognized as KDM4 substrates
5,"KGPDEAKI[Lys(Me3)]ALLERTGY [compound 11, hnRNPQ-K125me3 peptide]",failed to undergo demethylation by KDM4A-E; also recorded: not recognized as KDM4 substrates
6,"MPSASASR[Lys(Me3)]SQEKPREI [compound 14, SYDC-K9me3 peptide]",not recognized as KDM4 substrates
7,"RSASSNSR[Lys(Me3)]SLSPGVSR [compound 10, Acinus-K654me3 peptide]",demethylated by multiple KDM4s; also recorded: robust demethylation
8,"SRAHSSHLKme3SKKGQSTS [compound 18, P53-K370me3 peptide]",failed to undergo demethylation by KDM4A-E
9,"WENTLHTL[Lys(Me3)]QRQLTSYV [compound 17, NUP107-K305me3 peptide]",failed to undergo demethylation by KDM4A-E

# Test system: KDM4A-I71AzF
# Assay: CASI: photo-crosslinking with HEK293T cell extracts, StrepTactin enrichment and LC-MS/MS proteomics;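 also: lysates from HEK293T cells pretreated with a KDM4 inhibitor to raise proteome methylation, affinity-purified after ±UV, gel-resolved, trypsin-digested, with exclusive unique peptides per protein averaged per condition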
# Format: binding, human
# Conditions: sheet "Final results but with 0.01"
row,Substance,Fold change (+UV/-UV)
1,ATPB_HUMAN,0.5789
2,BRE1A_HUMAN,0.1667
3,BRE1B_HUMAN,0.25
4,CCAR2_HUMAN,0.75
5,CHD4_HUMAN,0.3333
6,CLH1_HUMAN,1
7,CLPX_HUMAN,1.5
8,CMC2_HUMAN,0.5
9,COR1C_HUMAN,0
10,DESP_HUMAN,0.2222
11,DHE3_HUMAN,1.727
12,DHSA_HUMAN,1
13,DHX9_HUMAN,0.7895
14,DNMT1_HUMAN,0
15,DOCK7_HUMAN,0.8
16,ECHA_HUMAN,1
17,ENPL_HUMAN,1.25
18,ESYT1_HUMAN,1
19,FAS_HUMAN,0.3889
20,FILA2_HUMAN,0.75
21,FLNA_HUMAN,0.3571
22,FTO_HUMAN,1

row,Substance,Fold change (+UV/-UV)
1,G3BP1_HUMAN,0
2,G3P_HUMAN,0.5
3,GRP75_HUMAN,0.7931
4,GRP78_HUMAN,0.5556
5,GUAA_HUMAN,0.6364
6,H12_HUMAN,700
7,HEAT1_HUMAN,0
8,HNRPK_HUMAN,1.273
9,HNRPU_HUMAN,0.6
10,HORN_HUMAN,0
11,HS90B_HUMAN,0.75
12,HSP7C_HUMAN,0.7407
13,HSP71_HUMAN,0.6154
14,I2BP2_HUMAN,0.3333
15,IF4A1_HUMAN,200
16,IF4G1_HUMAN,0
17,INT3_HUMAN,2
18,K2C4_HUMAN,10
19,KCRU_HUMAN,200
20,KPYM_HUMAN,1.667
21,KRT82_HUMAN,200
22,LAMP2_HUMAN,2

row,Substance,Fold change (+UV/-UV)
1,MAOM_HUMAN,1.714
2,MCM7_HUMAN,0.3333
3,MPRI_HUMAN,0
4,MSH6_HUMAN,0.5
5,MYH9_HUMAN,0
6,NU205_HUMAN,0.6667
7,NU214_HUMAN,2
8,NUMA1_HUMAN,0
9,PABP1_HUMAN,0.8571
10,PO210_HUMAN,0.1538
11,PRKDC_HUMAN,0.5
12,PRP8_HUMAN,0.32
13,PTBP1_HUMAN,1.2
14,PYR1_HUMAN,0.125
15,RBM25_HUMAN,0
16,RBP56_HUMAN,1
17,RIF1_HUMAN,1
18,RRP5_HUMAN,0
19,RU17_HUMAN,1
20,SCRIB_HUMAN,3
21,SMCA5_HUMAN,0
22,SP16H_HUMAN,0.2857

row,Substance,Fold change (+UV/-UV)
1,SPTN1_HUMAN,0
2,SSRP1_HUMAN,0
3,SYEP_HUMAN,0.6667
4,SYNM_HUMAN,1
5,TBA1B_HUMAN,0.8182
6,TCPA_HUMAN,2
7,TCPE_HUMAN,0.3333
8,TCPG_HUMAN,4
9,TCPH_HUMAN,1.333
10,TCPZ_HUMAN,1
11,TERA_HUMAN,1.125
12,TLN1_HUMAN,0
13,TPR_HUMAN,0.6212
14,U5S1_HUMAN,0.6
15,U520_HUMAN,0.6129
16,UGGG1_HUMAN,1
17,VIME_HUMAN,0.875
18,XRCC5_HUMAN,0.5
19,XRCC6_HUMAN,0.3333
20,YLPM1_HUMAN,0.6923
21,ZN207_HUMAN,1
22,ZO1_HUMAN,1

# Source: paper PMC10540216, “Activity Guided Azide-methyllysine Photo-trapping for Substrate Profiling of Lysine Demethylases” (Journal of the American Chemical Society, 2023)
